Data on eleven molecules can be found in patent US7078537B2, “Phenylalkyl diamine and amide analogs” (SK Corporation, priority 2001, dated 2006).

For one experiment, the target named is T1, sigma-2 receptor (Cavia porcellus, UniProt H0V073).
T1 construct: their whole brains (without cerebellum) were rapidly removed and homogenized; from tissue; host or cells: guinea pig (male Hartley) whole brain without cerebellum, membrane homogenate
T1 sequence (H0V073 1-176): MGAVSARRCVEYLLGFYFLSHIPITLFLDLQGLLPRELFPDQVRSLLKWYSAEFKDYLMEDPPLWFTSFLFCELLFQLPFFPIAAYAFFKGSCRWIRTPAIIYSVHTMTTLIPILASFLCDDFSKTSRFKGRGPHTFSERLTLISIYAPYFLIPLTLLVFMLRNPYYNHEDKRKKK
In words: Sigma-2 binding assay ([3H]DTG in the presence of (+)-SKF10047). To be noted: guinea pig brain membranes, read-out: Sigma 2 Inhib. %. Here is the method:
(§1) Sigma-1 and Sigma-2 Binding Assay Methods
(§2) Compounds of the present inventions were tested for selective binding to the sigma-1 receptor and sigma-2 receptor as modified from Chaki et al. Eur. J. Pharmacol. 1994, 251, R1. and Akunne et al., Neuropharmacology, 1997, 36(1), 51.
(§3) Tissue Homogenate Preparation for Sigma-1 Binding Assay and Sigma-2 Binding Assay
(§4) Male Hartley guinea pigs each weighing 300–400 g were used in sigma subtype binding assay. Guinea pigs were killed by decapitation and their whole brains (without cerebellum) were rapidly removed and homogenized in 25 volumes(W/V) of ice-cold 50 mM Tris-HCl buffer(pH 7.4 buffer for sigma-1 binding assay and pH 8.0 buffer for sigma-2 binding assay). The homogenate was centrifuged in 48,000×g for 10 min at 4° C. The supernatant was discarded and the resulting pellets were resuspended in the sane volume of buffer and recentrifuged as described above. The pellets were resuspended and washed twice more in the same manner as described above. The final pellets were resuspended in 10 volumes(W/V) of ice-cold 50 mM Tris-HCl buffer to enable distribution of 2 ml aliquot in microcentrifuge tube, which were used immediately or kept at −80° C. for no more than 1 month before use.
Sigma-2 Binding Assay([^3H]DTG)
The Sigma-2 selective binding assay was performed using 3.6 nM[^3H]DTG as the radioligand in the presence of 200 nM (+)-SKF10047 to block the Sigma-1 sites, with […] of guinea pig brain membranes in a total volume of 0.5 ml of 50 mM TRIS-HCl, pH8.0. Non-specific binding was determined in the presence of […]. Incubation condition and other manipulations were as described above for sigma-1 binding assay.
(§5) IC50 values for sigma-1 or -2 binding assay were calculated using KELL RADLIG v.6.0.5.

Another experiment concerns the target T2, sigma-1 receptor (Cavia porcellus, UniProt Q60492).
T2 construct: their whole brains (without cerebellum) were rapidly removed and homogenized; from tissue; host or cells: guinea pig (male Hartley) whole brain without cerebellum, membrane homogenate
As to the kind of experiment: Sigma-1 binding assay ([3H](+)-pentazocine). Conditions: guinea pig brain membranes; for inhibition at 0.01 µM: inhibition % at 10 nM, [3H](+)-pentazocine, Table II, read-out: Sigma 1 Inhib. %; for IC50: [3H](+)-pentazocine 2.4 nM, Table I. Here is the method: as §1, §2, §3, §4
Sigma-1 Binding Assay ([^3H](+)pentazocine)
The sigma-1 selective binding assay was performed using [^3H](+)-pentazocine as the radioligand (2.4 nM final concentration unless otherwise specified) and approximately […] of guinea pig brain membranes in a final volume of […] of 50 mM TRISHCl, pH7.4. Non-specific binding was determined in the presence of […]. For the standard equilibrium assay, the mixtures were incubated for 2 hours at 25°, and rapidly filtered over Whatman GF/C glass fiber filters, followed by three 4.5 ml rinses with ice-cold incubation buffer. The filters were placed in counting vials and 4 ml scintillation solution. The vials were counted in a Beckman scintillation counter.
as §5

[1] abbreviates: inhibition % at 10 nM, [3H]DTG, Table II.
Where [2] appears, read: Inhibition % at 10 nM, [3H]DTG 3.6 nM, Table I.

Like-named read-outs stand apart in the source and are kept apart here.

T2 sequence (Q60492 whole entry): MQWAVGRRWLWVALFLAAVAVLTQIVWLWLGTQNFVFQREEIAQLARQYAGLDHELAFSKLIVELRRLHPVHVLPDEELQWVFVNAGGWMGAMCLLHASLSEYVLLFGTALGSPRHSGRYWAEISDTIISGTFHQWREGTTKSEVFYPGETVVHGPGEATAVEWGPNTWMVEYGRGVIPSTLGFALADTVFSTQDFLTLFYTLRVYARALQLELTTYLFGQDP

Regarding `NC(Cc1cccc(C(F)(F)F)c1)CN1CCCCCC1` (stereo not shown), the inhibition at 0.01 µM at sigma-2 receptor (setting [1]) came to 31.3%; at sigma-1 receptor, 42.9%.

In the case of `NC(Cc1ccc(Cl)cc1Cl)CN1CCC(Cc2ccccc2)CC1` (stereo not shown), the inhibition at 0.01 µM on sigma-2 receptor (setting [1]) was 48.3%; at sigma-1 receptor, 56.9%.

Turning to `CNC(Cc1ccc(C(C)(C)C)cc1)CN1CCCCCC1` (stereo not shown), the inhibition at 0.01 µM at sigma-2 receptor (setting [2]) was 27.4%. In addition, the IC50 – broadly, the concentration at which inhibition is half-maximal – at sigma-1 receptor was 2.5 nM.

As for `N[C@@H](Cc1ccccc1)CN1CCC(C(=O)c2ccc(Cl)cc2)CC1`, the values for the inhibition at 0.01 µM on sigma-2 receptor (setting [1]) and at sigma-1 receptor were 53.6% and 61%, respectively.

With `CC(C)(C)c1ccc(C(=O)C2CCN(C[C@@H](N)Cc3ccccc3)CC2)cc1`, the inhibition at 0.01 µM is 43.1% on sigma-2 receptor (setting [1]) and 66.2% on sigma-1 receptor.

As for `N[C@@H](Cc1ccccc1)CN1CCC(C(=O)c2cccc(Cl)c2)CC1`, the inhibition at 0.01 µM came out at 73% at sigma-2 receptor (setting [1]) and 82.9% on sigma-1 receptor.

Turning to `CC(C)(C)c1ccc(CC(N)CCN2CCC(Cc3ccccc3)CC2)cc1` (stereo not shown), the inhibition at 0.01 µM came to 24.3% on sigma-2 receptor (setting [1]) and 3.7% on sigma-1 receptor.

Take `CC(C)(C)c1ccc(CC(N)CN2CCCCCC2)cc1` (stereo not shown): the inhibition at 0.01 µM at sigma-2 receptor (setting [2]) was 55.7%. The IC50 at sigma-1 receptor was found to be 2.1 nM.

`NC(Cc1ccc(Cl)c(Cl)c1)CN1CCCCCC1` (stereo not shown): the inhibition at 0.01 µM at sigma-2 receptor (setting [2]) was found to be 12.5%. At sigma-1 receptor, this molecule displayed an IC50 of 12.1 nM.

Consider `NC(Cc1ccc(Cl)cc1)CN1CCC(C(=O)c2ccccc2)CC1` (stereo not shown), for which the inhibition at 0.01 µM on sigma-2 receptor (setting [1]) stood at 50%; at sigma-1 receptor, 38.9%.

For `COc1ccc(C(=O)C2CCN(C[C@@H](N)Cc3ccccc3)CC2)cc1`, the values for the inhibition at 0.01 µM at sigma-2 receptor (setting [1]) and on sigma-1 receptor were 39.8% and 49.1%, respectively.
